In ChEMBL document CHEMBL3045030, “Insect antifeedants from tropical plants II: structure of zumsin” (2002):

Columns and labels:
Type in all cases: functional
Spodoptera frugiperda [1] = assay: Antifeedant activity against second-instar larvae of Spodoptera frugiperda (fall armyworm) in cotton glandless leaves assessed as 95% protection of host plant substrate after 48 hr
Pectinophora gossypiella [2] = assay: Antifeedant activity against second-instar larvae of Pectinophora gossypiella (pink bollworm) in cotton glandless leaves assessed as 50% protection of host plant substrate after 48 hr
Spodoptera frugiperda [3] = assay: Antifeedant activity against second-instar larvae of Spodoptera frugiperda (fall armyworm) in cotton glandless leaves assessed as 50% protection of host plant substrate after 48 hr
Pectinophora gossypiella [4] = assay: Antifeedant activity against second-instar larvae of Pectinophora gossypiella (pink bollworm) in cotton glandless leaves assessed as 95% protection of host plant substrate after 48 hr

Compound `CC(=O)O[C@@H]1[C@@H]2[C@@]34CC(=O)C[C@@H]3OC(C)(C)[C@@H]4CC(=O)[C@@]2(C)[C@@]23O[C@@H]2C[C@H](c2ccoc2)[C@]3(C)[C@H]1OC(C)=O` [ZUMSIN] has a PC95 (Spodoptera frugiperda [1]) of 16 microg/cm2, a PC50 (Pectinophora gossypiella [2]) of 1 microg/cm2 and a PC50 (Spodoptera frugiperda [3]) of 2 microg/cm2. It also gave a PC95 (Pectinophora gossypiella [4]) of 8 microg/cm2.
